Where two headings read alike, the source gives them in different places.
Tested on: Primary DRG cells
Experiment: Neurite outgrowth assay (group A), paclitaxel-induced neurotoxicity
Type: cell-based, C57BL/6 J mice
Conditions: for neuroprotection against paclitaxel-induced neurotoxicity: 1 µM compound, 0.05 µM paclitaxel; for activity at 1 µM: Mus musculus, read-out: Neurite outgrowth (%); for Neurite outgrowth (%) A-B (extent of protection): difference between compound 1 µM + paclitaxel 0.05 µM and paclitaxel 0.05 µM alone
Experimental: Compounds of this invention were evaluated using the neurite outgrowth assay as described in Chen et al., Scientific Reports, 7, 45366, DOI: 10.1038/srep45366 (2017).
Cell culture. For primary culture, dorsal root ganglia (“DRG”) were removed from 7-weeks-old C57BL/6 J mice and digested with 0.1% collagenase (Sigma-Aldrich, St. Louis, MO) for 1 hour, followed by 0.25% trypsin treatment for 25 minutes. The dissociated neuron cultures were plated at a density of 2.5×10^4 cells per well in a 96 well optics plates (CLS3614; Sigma-Aldrich) precoated with 1 mg/mL poly-D-lysine (A-003-M; Sigma-Aldrich) for 3 hours. Primary DRG cells were grown in DMEM-F12 (11320033; Gibco®, ThermoFisher Scientific, Waltham, MA) supplemented with 10% fetal bovine serum (FBS, 26140079; Gibco®, ThermoFisher). These cells were maintained at 37° C. in an environment containing 5% CO2.
Neurite outgrowth assay (group A). Primary DRG cells were incubated with one of the Example 2 compounds at 1 µM for 24 hours, and then treated with 0.05 µM paclitaxel for another 24 hours. After the paclitaxel treatment, the primary DRG cells were washed by PBS and then fixed with 4% paraformaldehyde (PFA, P6148; Sigma-Aldrich) for 15 minutes. The DRG cells thus fixed were permeabilized by 0.05% Triton X-100 in PBS for 20 minutes and blocked with 3% bovine serum albumin (BSA; Sigma-Aldrich, USA) at room temperature for 1 hour. Subsequently, DRG cells were stained with rabbit anti-β III tubulin (1:600; Cell Signaling, USA) and mouse anti-NeuN monoclonal antibody (1:400; Millipore, USA) overnight at 4° C. The samples were then washed by PBS and reacted with secondary antibodies (Alexa-488 and Alexa-594 1:600; Invitrogen, CA) at room temperature for 1 hour. For image acquisition and analysis of DRG neurite outgrowth, images of stained cells were automatically acquired using 10X objective by Image Xpress Micro wide field fluorescent microscope (Molecular Devices, USA). A control was obtained following the same procedure except that the DRG cells were not treated with a compound or paclitaxel. Neurite outgrowth was measured as a percentage of outgrowth as compared to the control.
The difference between A and B indicates an extent of protection provided by the compound.

[1] = DRG cells, 1 µM compound 24 h then 0.05 µM paclitaxel 24 h, % of untreated control

Structure (SMILES) | neuroprotection against paclitaxel-induced neurotoxicity | activity at 1 µM [1] [%] | Neurite outgrowth (%) A-B (extent of protection) [%] | activity at 1 µM (24 h) [%]
COC(=O)CCOCCCn1cc(CNc2nc(NC3CCN(Cc4ccccc4)CC3)cc(N3CCOCC3)n2)nn1 [Compound 65] | neuroprotection was provided |  |  | 
COC(=O)CCOCCCn1cc(CNc2nc(NC3CCN(Cc4ccc5ccccc5c4)CC3)cc(N3CCOCC3)n2)nn1 [Compound 75] | neuroprotection was provided |  |  | 
OCCCn1cc(CNc2nc(NC3CCNCC3)cc(N3CCCCC3)n2)nn1 [Compound 38] | neuroprotection was provided | 37 | 5 | 
CCOC(=O)CNCCC(=O)N1CCC(Nc2cc(N3CCOCC3)nc(NCc3cn(CCCOCCC(=O)OC)nn3)n2)CC1 [Compound 74] | neuroprotection was provided | 45 | 3 | 
O=C(O)CCN1CCC(Nc2cc(N3CCOCC3)nc(NCc3cn(CC(=O)O)nn3)n2)CC1 [Compound 6] | neuroprotection was provided |  | 3 | 46
O=P(O)(O)CCN1CCC(Nc2cc(N3CCOCC3)nc(NCc3cn(CCCCO)nn3)n2)CC1 [Compound 117] | neuroprotection was provided | 58 | 11 | 
COC(=O)CCN1CCC(Nc2cc(N3CCOCC3)nc(NCc3cn(CCCO)nn3)n2)CC1 [Compound 48] | neuroprotection was provided | 58 | 11 | 
NCCCn1cc(CNc2nc(NC3CCN(C(=O)CCNC(=O)C4(O)CC(O)C(O)C(O)C4)CC3)cc(N3CCOCC3)n2)nn1 (centres unmarked) [Compound 15] | neuroprotection was provided | 35 | 3 | 
CN1CCN(c2cc(NCc3cccnc3)nc(NCc3cn(CCCO)nn3)n2)CC1 [Compound 42] | neuroprotection was provided | 34 | 3 | 
COC(=O)CCOCCCn1cc(CNc2nc(NC3CCN(Cc4cccc(C(=O)OC)c4)CC3)cc(N3CCOCC3)n2)nn1 [Compound 68] | neuroprotection was provided |  | 1 | 41
CCCCC(=O)NCCCn1cc(CNc2nc(NC3CCN(CCP(=O)(O)O)CC3)cc(N3CCOCC3)n2)nn1 [Compound 28] | neuroprotection was provided | 53 | 3 | 
COC(=O)c1cccc(CNCCCn2cc(CNc3nc(NC4CCN(Cc5ccccc5)CC4)cc(N4CCOCC4)n3)nn2)c1 [Compound 21] | neuroprotection was provided | 45 | 3 | 
OCC(CO)Cn1cc(CNc2nc(NC3CCN(Cc4ccccc4)CC3)cc(N3CCOCC3)n2)nn1 [Compound 81] | neuroprotection was provided | 52 | 2 | 
CN1CCN(c2cc(NC3CCNCC3)nc(NCc3cn(CCCO)nn3)n2)CC1 [Compound 41] | neuroprotection was provided | 34 | 3 | 
O=P(O)(O)CCN1CCC(Nc2cc(N3CCS(=O)(=O)CC3)nc(NCc3cn(CCCO)nn3)n2)CC1 [Compound 143] | neuroprotection was provided | 57 | 7 | 
